Test results: PubChem BioAssay (NCI)
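Step 1: Grow cells in 96-well plates. Step 2: Expose to compound for 48 hours at 5 concentrations. Step 3: Interpolate endpoints linearly; if unreached, use highest concentration. GI50 marks 50% less growth. The concentration for full growth arrest is given as TGI.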

Key:
Experiment in all cases: NCI-60 cell line screen, 48 h
[1] = test system: HL-60(TB) leukemia
[2] = test system: OVCAR-8 ovarian
[3] = test system: HS 578T breast
[4] = test system: M14 melanoma
[5] = test system: RPMI-8226 leukemia
[6] = test system: A549 NSCLC
[7] = test system: RXF 393 renal
[8] = test system: SNB-19 CNS
[9] = test system: CAKI-1 renal
[10] = test system: SR leukemia

Row | SMILES | GI50 [1] [µM] | TGI [1] [µM] | GI50 [2] [µM] | TGI [2] [µM] | GI50 [3] [µM] | TGI [3] [µM] | GI50 [4] [µM] | TGI [4] [µM] | GI50 [5] [µM] | TGI [5] [µM] | GI50 [6] [µM] | TGI [6] [µM] | GI50 [7] [µM] | TGI [7] [µM] | GI50 [8] [µM] | TGI [8] [µM] | GI50 [9] [µM] | TGI [9] [µM] | TGI [10] [µM] | GI50 [10] [µM]
1 | C#CC1(O)C(COP(=O)(O)OCC(COP(=O)(O)OCC2OC(n3cc(F)c(=O)[nH]c3=O)CC2O)OCCCCCCCCCCCCCCCCCC)OC(n2ccc(N)nc2=O)C1O (configuration not stated) | 0.982 | > 100 | 0.169 | > 36.5 | 2.16 | > 52.8 | 0.215 | 6.45 | 0.111 | > 100 | 0.117 | > 68.3 | 0.393 | 6.33 | 0.313 | > 57.2 | 0.0293 | 1.16 |  | 
2 | CC(=O)Oc1c(C)c(-c2ccccc2)c(C)c(-c2ccccc2)c1C(=S)c1ccccc1 |  | > 100 |  | > 100 |  |  |  | > 100 |  | > 100 |  | > 100 |  | > 100 |  | > 100 |  |  | > 100 | 
3 | C[C@]12CC=CC(=O)[C@@]1(C)CCC(=O)C2 |  | > 100 |  | > 100 |  |  |  | > 100 |  |  |  | > 100 |  | > 100 |  | > 100 |  | > 100 | > 100 | 
4 | COc1cc(NCC(C#N)C#N)ccc1N=Nc1ccc(Cl)cc1 |  |  |  | > 100 |  |  |  | 33.5 |  | 92.3 |  | > 100 |  | 79 |  | 61.6 |  |  | 35.9 | 
5 | COc1cc(NS(=O)(=O)c2ccc(C)cc2)c2nccnc2c1 |  | 51.7 |  | > 100 |  |  |  | 35.1 |  | > 100 |  | > 100 |  | 64.7 |  | > 100 |  | > 100 | > 100 | 
6 | CCOc1cc(C(C)(C)C)ccc1C1=N[C@H](c2ccc(Cl)cc2)[C@H](c2ccc(Cl)cc2)N1C(=O)N1CCN(CC#Cc2cccc3c2CN([C@@H]2CCC(=O)NC2=O)C3=O)CC1 |  |  | 0.157 | > 31.8 | 0.346 | > 100 | 1.46 | > 47.3 | 2.3 | > 100 | 1.1 | > 43.1 | 2.12 | > 51.6 | 2.1 | > 58.8 | 0.215 | 9.59 | > 100 | 0.642
7 | CN(C)CCOc1ccc([N+](=O)[O-])c2cccnc12 |  | > 100 |  | > 100 |  | > 100 |  | > 100 |  |  |  | > 100 |  |  |  | > 100 |  | > 100 | > 100 | 
8 | COC(=O)C(=O)CC(=O)CCn1[nH]c(=O)c(Cl)c(Cl)c1=O |  | > 100 |  | > 100 |  |  |  | > 100 |  |  |  | > 100 |  | > 100 |  | > 100 |  | > 100 |  | 
9 | CC(=O)Oc1cc2c(cc1OC(C)=O)C1(C)CCC2(C)c2cc(OC(C)=O)c(OC(C)=O)cc21 |  | 19.9 |  | > 100 |  |  |  | 90.5 |  | 50.3 |  | > 100 |  | > 100 |  | 22.4 |  | 90.5 |  | 
10 | O=C1C=C(Nc2ccccc2C(=O)CC(=O)C(=O)Nc2cccc([N+](=O)[O-])c2)c2ccccc2C1=O |  | 15.6 |  | > 100 |  |  |  | > 100 |  | 53.6 |  | > 100 |  | > 100 |  | > 100 |  | > 100 |  | 
11 | O=C1N/C(=C\[N+](=O)[O-])c2ccccc21 |  | > 100 |  | > 100 |  |  |  | > 100 |  | > 100 |  | > 100 |  | > 100 |  | > 100 |  |  | > 100 | 
12 | CC(=O)c1ccc(NC(=O)/C(CC(=O)c2sc(-c3cccnc3)nc2C)=N/NC(N)=O)cc1 |  | 72.9 |  | > 100 |  |  |  | > 100 |  | 54.4 |  | 71.2 |  |  |  | > 100 |  | 86 | > 100 | 
13 | NC1=NN(c2ccccc2)C(=O)C1C(=O)CCC(=O)Nc1cccc(Cl)c1 (configuration not stated) |  | > 100 |  | > 100 |  |  |  | > 100 |  |  |  | > 100 |  | > 100 |  | > 100 |  | > 100 |  | 
14 | CCCC1(CC(=O)O)OCCc2c1[nH]c1ccccc21 (configuration not stated) |  | > 100 |  | > 100 |  |  |  | > 100 |  | > 100 |  | > 100 |  | > 100 |  | > 100 |  | > 100 |  | 
15 | N#CCC(=O)N/N=C1/C(=O)N(c2ccc(Cl)cc2)C(=O)C(=O)C1c1nc2ccccc2s1 (configuration not stated) |  |  |  | > 100 |  |  |  | > 100 |  |  |  | > 100 |  | > 100 |  | > 100 |  | > 100 |  | 
16 | O=C(Nc1ccc(Cl)cc1)C1C(=O)C(=O)N(c2ccc(Cl)cc2)C1=O (configuration not stated) |  | > 100 |  | > 100 |  |  |  | > 100 |  | > 100 |  | > 100 |  | > 100 |  | > 100 |  | > 100 | > 100 | 
17 | CCCCCCCCCCCC(=O)OCCOCCOCCOCCOCCOC(=O)CCCCCCCCCCC |  | > 100 |  | > 100 |  |  |  | > 100 |  | > 100 |  | > 100 |  | > 100 |  | > 100 |  | > 100 | > 100 | 
18 | Cn1c(Cl)c(/C=C2/C(=O)Nc3ccccc32)c2ccccc21 | 0.14 | 1.92 | 1.7 | > 37.1 | 0.248 | 2.03 | 0.248 | 5.46 | 0.582 | 4.6 | 6.58 | > 63 | 0.392 | > 19.6 | 0.935 | 29.9 | 0.603 | 17.9 |  | 
19 | CCN1C(=O)/C(=C/c2c(Cl)[nH]c3cc(C)c(OC)cc23)c2ccccc21 |  |  | 4.29 | > 100 | 2.86 | 7.23 | 4.42 | 53.9 | 2.7 | 24.1 | 2.84 | > 100 | 1.11 | 34 | 3.43 | 48.2 | 5.45 | > 100 | > 100 | 2.49
20 | CCN1CCCc2cc3c(C(F)(F)F)cc(=O)oc3cc21 |  |  |  | > 100 |  |  |  | > 100 |  |  |  | > 100 |  | 63.2 |  | > 100 |  | > 100 |  | 
21 | COc1ccc(NC(=O)CC/C(CC(=O)c2ccco2)=N/NC(=O)C(N)=O)cc1 |  | > 100 |  | > 100 |  |  |  | > 100 |  | > 100 |  | > 100 |  | > 100 |  | > 100 |  | > 100 |  | 
22 | C=CC[P@]1(=O)O[C@H](c2ccccc2)[C@H](C)N1C |  | > 100 |  | > 100 |  |  |  | > 100 |  | > 100 |  | > 100 |  | > 100 |  | > 100 |  |  | > 100 | 
